The subject of data set [1] is WS1 human fibroblast cell line. Description: Cell viability assay, WS1 toxicity control. It counts as cell-based. The following applies: Homo sapiens, Fibroblast, n = 4, nonspecific toxicity control. The procedure, abridged:
(§1)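 Patient-derived chordoma lines and WS1 fibroblasts seeded in 384-well plates, dosed in quadruplicate 24 h after plating.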

The subject of data set [2] is U-CH2 chordoma cell line. The following applies: previously reported, Figure 1; cited from earlier work.
In data set [3] the test system is HL60 cells. In words: AsedaSciences SYSTEMETRIC Cell Health Screen (flow cytometry toxicity profiling). The following applies: HL60, 4 h, 5 nM–100 µM. The procedure, abridged: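 HL60 cells (100,000 per well) exposed 4 h at 37 °C, 5% CO2 to 10-step 3× dilutions (5 nM–100 µM), in duplicate. Cells then stained with mitochondrial and cell-stress reporter dyes and read by ungated flow cytometry over twelve parameters. Cell Health Index and eight endpoint scores come from an ML classifier trained on 300 high/low-risk compounds.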
(Flow cytometry measures light scatter and fluorescence of single cells or particles in a stream.)

Data set [4] relates to U-CH2 chordoma cell line. Description: Cell viability assay (alamarBlue, 72 h), U-CH2. Type of data set: cell-based, human. To be noted: Homo sapiens, UCH2, n = 4, 72 h. The procedure, abridged:
(§2)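 Cells grown in 4:1 IMDM:RPMI with 10% FBS on gel-coated flasks, dosed in quadruplicate 24 h after seeding in 384-well plates.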
A general note: Resazurin is reduced to fluorescent resorufin, in cell work by metabolically active cells.

Data set [5] deals with U-CH1 chordoma cell line. The following applies: previously reported, Figure 1; cited from earlier work.
The subject of data set [6] is U-CH7 patient-derived chordoma cell line. In words: Cell viability assay (alamarBlue, 72 h), U-CH7. Type of data set: cell-based, human. The following applies: Homo sapiens, n = 4, 72 h. The procedure, abridged:
as §1

Data set [7] concerns U-CH1 chordoma cell line. Description: Cell viability assay (alamarBlue, 72 h), U-CH1. It counts as cell-based, human. The following applies: n = 4, 72 h. The procedure, abridged: as §2
Data set [8] addresses EGFR (Homo sapiens, UniProt P00533). Description: ProQinase in-cell EGFR assay (EGFR phosphorylation in A431 cells). More on the design: This cell line endogenously expresses a high level of EGFR; endogenous in cells; host or cells: A431. Type of data set: cell-based. The following applies: ProQinase in-cell EGFR assay, A431 cells, n = 1. The source says: In addition, we ran an EGFR in-cell target engagement assay, measuring in-cell EGFR phosphorylation, using the human epidermoid carcinoma cell line A431. This cell line endogenously expresses a high level of EGFR, and stimulation of these cells with human epidermal growth factor (EGF) results in receptor tyrosine autophosphorylation.

The subject of data set [9] is UM-Chor1 patient-derived chordoma cell line. In words: Cell viability assay (alamarBlue, 72 h), UM-Chor1. It counts as cell-based, human. To be noted: Homo sapiens, n = 4, 72 h. The procedure, abridged: as §1
For data set [10], the system named is CH22 patient-derived chordoma cell line. Description: Cell viability assay (alamarBlue, 72 h), CH22. It counts as cell-based, human. The following applies: Homo sapiens, n = 4, 72 h. The procedure, abridged: as §1
In data set [11] the test system is U-CH12 patient-derived chordoma cell line. Description: Cell viability assay (alamarBlue, 72 h), U-CH12. It counts as cell-based, human. The following applies: Homo sapiens, n = 4, 72 h. In short, it runs like this:
as §1

pIC50: −log10 of the molar value. Read-outs that look alike come from different tables or passages of the source.

EGFR, sequence (P00533 25-1210): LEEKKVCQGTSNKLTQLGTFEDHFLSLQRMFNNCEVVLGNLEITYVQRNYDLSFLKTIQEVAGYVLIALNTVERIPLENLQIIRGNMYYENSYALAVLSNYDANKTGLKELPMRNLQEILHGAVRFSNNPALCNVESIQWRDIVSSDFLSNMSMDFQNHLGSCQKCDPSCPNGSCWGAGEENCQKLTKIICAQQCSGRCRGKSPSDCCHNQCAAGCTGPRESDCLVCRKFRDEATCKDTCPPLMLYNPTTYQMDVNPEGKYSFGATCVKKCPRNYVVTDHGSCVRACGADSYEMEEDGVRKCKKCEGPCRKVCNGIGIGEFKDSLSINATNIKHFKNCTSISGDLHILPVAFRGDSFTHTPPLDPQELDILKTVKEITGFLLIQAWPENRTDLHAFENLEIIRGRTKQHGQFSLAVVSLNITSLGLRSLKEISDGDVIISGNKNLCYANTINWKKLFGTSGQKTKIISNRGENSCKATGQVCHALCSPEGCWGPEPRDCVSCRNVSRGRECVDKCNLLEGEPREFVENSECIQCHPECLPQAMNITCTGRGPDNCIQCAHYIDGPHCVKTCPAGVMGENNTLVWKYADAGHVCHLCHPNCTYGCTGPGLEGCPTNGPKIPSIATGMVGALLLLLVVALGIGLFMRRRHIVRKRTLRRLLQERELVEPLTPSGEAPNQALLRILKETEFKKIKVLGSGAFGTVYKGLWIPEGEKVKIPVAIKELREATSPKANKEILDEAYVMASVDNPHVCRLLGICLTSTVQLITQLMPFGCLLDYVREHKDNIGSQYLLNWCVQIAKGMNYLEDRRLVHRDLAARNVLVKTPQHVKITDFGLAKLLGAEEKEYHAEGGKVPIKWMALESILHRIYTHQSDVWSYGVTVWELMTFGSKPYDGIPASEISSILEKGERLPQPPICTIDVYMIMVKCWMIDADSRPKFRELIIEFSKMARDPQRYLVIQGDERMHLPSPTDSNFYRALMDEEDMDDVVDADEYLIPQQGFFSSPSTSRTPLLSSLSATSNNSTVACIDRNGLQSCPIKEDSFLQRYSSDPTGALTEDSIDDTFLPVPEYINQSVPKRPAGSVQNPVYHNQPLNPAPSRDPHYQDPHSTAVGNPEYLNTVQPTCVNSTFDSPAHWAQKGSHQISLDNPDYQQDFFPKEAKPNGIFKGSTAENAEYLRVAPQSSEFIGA

Consider `C#Cc1cccc(Nc2ncnc3cc(OC)c(OC)cc23)c1` [Compound 1, N-(3-ethynylphenyl)-6,7-dimethoxyquinazolin-4-amine], for which the pIC50 (in general, the IC50 on a negative log10 scale, so that one unit is a factor of ten) was 4.82 in data set [1]; under 4.30 in data set [2]; 4.18 in data set [4]; 6.04 in data set [5]; 4.64 in data set [6]; over 6.00 in [7] (Homo sapiens, UCH1, 72 h). Besides, the pIC50 in [7] is 6.20; in [8], 7.72; in [9] it was 4.55; in data set [10], under 4.00; in [11], under 4.00. For the same compound, the “CC: Cell Cycle score” value in [3] (probability 0–1, n = 2) stood at 0.086. Also, in data set [3] (probability 0–1, n = 2), the “CM: Cell morphology score” value amounted to 0.85. In [3] (probability 0–1, n = 2), the “CMI: Cell membrane integrity score” value was 0.11. The “GSH: Glutathione score” value in data set [3] (probability 0–1, n = 2) came to 0.18. In addition, in [3] (probability 0–1, n = 2), the “MMP: Mitochondrial membrane depolarization score” value is reported as 0.39. Moreover, in data set [3] (probability 0–1, n = 2), the “NMI1: Nuclear membrane integrity 1 score” value turned out to be 0.47. In addition, the “NMI2: Nuclear membrane integrity 2 score” value in [3] (probability 0–1, n = 2) worked out at 0.41. In addition, the “ROS: Reactive superoxide species score” value in data set [3] (probability 0–1, n = 2) is 0.32. In addition, the “CHI: Cell Health Index” value in data set [3] (probability (0–1) of high-risk class, n = 2) amounted to 0.41.

The values are drawn from paper PMC9329436, “Optimization of the 4-anilinoquin(az)oline scaffold as epidermal growth factor receptor (EGFR) inhibitors for chordoma utilizing a toxicology profiling assay platform” (Scientific Reports, 2022).
